# Measurements taken from patent US20220204473A1, “COMPOUND AS IRAK INHIBITOR” (SHANGHAI MEIYUE BIOTECH DEVELOPMENT CO., LTD., priority 2018, published 2022).
# Where two headings read alike, the source gives them in different places.
# Tests used:
# human IRAK4 = target: T1, human IRAK4 (Homo sapiens, UniProt Q9NWZ3); assay: IRAK4 MSA (Mobility-Shift Assay) at Km ATP; type: biochemical; settings: GST-IRAK4 1 nM, ATP 37 μM (Km); read-out: IC50 for inhibiting human IRAK4 kinase
# T1 construct: purchased Cama (so in the source)
# T1 sequence (Q9NWZ3 1-460): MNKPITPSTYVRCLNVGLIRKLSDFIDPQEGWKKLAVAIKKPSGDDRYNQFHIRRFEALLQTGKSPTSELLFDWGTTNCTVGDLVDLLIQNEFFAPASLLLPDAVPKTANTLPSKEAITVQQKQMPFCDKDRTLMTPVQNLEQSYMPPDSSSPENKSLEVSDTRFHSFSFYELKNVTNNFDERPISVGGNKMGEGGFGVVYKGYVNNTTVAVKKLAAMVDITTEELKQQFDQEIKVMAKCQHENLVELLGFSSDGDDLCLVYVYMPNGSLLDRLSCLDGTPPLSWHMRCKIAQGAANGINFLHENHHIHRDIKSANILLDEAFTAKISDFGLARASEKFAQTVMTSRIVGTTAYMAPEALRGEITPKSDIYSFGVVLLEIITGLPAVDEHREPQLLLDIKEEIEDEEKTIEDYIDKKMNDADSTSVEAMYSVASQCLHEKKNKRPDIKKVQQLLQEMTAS
# Protocol: A recombinant fusion protein of N-terminal GST (glutathione-S-transferase) and human IRAK4 was used as enzyme (GST-IRAK4, kinase IRAK4 (Cama)) at a final concentration of 1 nM; ATP (Sigma) was at a final concentration of 37 μM; the substrates used for the kinase reaction were a 5-FAM (5-carboxyfluorescein)-labeled polypeptide (5-FAM-[…]-COOH) and a substrate peptide FAM-P8 (GL Biochem) at final concentrations of […].
# In this assay, 500 μM solutions of the compounds were prepared in 100% DMSO, and serially 4-fold diluted to the 10th concentration gradient with 100% DMSO, followed by a 10-fold dilution in the compound buffer (50 mM HEPES. pH 7.5, 0.00015% Brij-35) to give intermediate dilutions of the compounds at a final concentration of 10 μM-0.04 nM containing 10% DMSO respectively, 5 μL of the dilutions were transferred into a black 384-well plate respectively.
# IRAK4 was diluted to 2.5 nM in the kinase buffer (50 mM HEPES, pH 7.5, 0.00015% Brij-35, 2 mM DTT). 10 μL of the IRAK4 dilution was transferred to the 384-well plate and co-incubated with the compound for 10-15 min.
# The substrate and ATP were diluted to 12.5 μM and 92.5 μM with reaction buffer (50 mM HEPES, pH 7.5, 0.00015% Brij-35, 10 mM MgCl2), respectively. 10 μL of the dilutions were transferred to a 384-well plate and incubated at 28° C. for 1 h respectively. The reaction was terminated by adding 25 μL of 50 mM EDTA to the 384-well plate.
# The inhibition rates of IRAK4 by the compounds were calculated by measuring the rate of phosphorylated substrate using a Caliper EZ Reader (PerkinElmer) and the IC50 values were calculated by XL-fit software.
# [1] = PK assay in rat (intravenous injection and oral gavage); type: in vivo; settings: plasma, male SD rat; for Cmax: read-out: Peak concentration Cmax; for AUC(0-t): read-out: Area under curve AUC0-t; for AUC(0-inf): read-out: Area under curve AUC0-∞; for MRT: read-out: Average retention time MRT; for half-life: read-out: Half life t1/2 (converted)
# Protocol: The rats used for pharmacokinetic study in the example were male SPF-grade SD rats (B&K Universal, Shanghai).
# Route of administration: a single dose by oral gavage or intravenous injection
# Sampling points: 0.083 h, 0.25 h, 0.5 h, 1 h, 2 h, 4 h, 6 h, 8 h and 24 h after administration
# Sample processing: 0.2 mL of venous blood was collected, and let stand on ice before centrifugation to separate plasma (centrifugation conditions: 8000 rpm, 6 min, 4° C.). The separated plasma was stored at −80° C. before analysis.
# Internal standard working solution: An appropriate amount of tolbutamide internal standard stock solution at 645,000 ng/mL was added into a volumetric flask, and was diluted to the volume with methanol. The solution was well mixed to give an internal standard working solution with a concentration of 50 ng/mL.
# Sample pretreatment: 50 μL of plasma was added into a 1.5-mL centrifuge tube, and added with 250 μL of internal standard solution (methanol of the same volume for the blank control). The solution was well mixed by vortex, and centrifuged for 5 min at 14000 rpm. 200 μL of the supernatant was transferred into a 96-well sample feeding plate, and loaded onto a LC-MS/MS system.
# Column: ACQUITY UPLC BEH C18 1.7 μm (50 mm×2.10 mm)
# Mobile phase: A: 0.1% aqueous formic acid; B: 0.1% formic acid in acetonitrile
# The data processing system was Analyst software (Applied Biosystems, USA, ver 1.5.5).
# [2] = system: TNF-α release in LPS-induced Balb/c female mice; assay: Inhibition of TNF-α release in LPS-induced Balb/c female mice; type: in vivo, mouse; set-up: concentration or dose not given beside the values; settings: oral gavage 5 h before LPS induction, serum 1.5 h after stimulation
# Protocol: In the normal control groups, the animals received an intraperitoneal injection of normal saline (10 mL/kg) and in the model groups, the animals received LPS stimulation (Sigma CAT #L2630, i.p., 10 mL/kg, 0.2 mg/kg). During the assay, to the test compounds, DMSO, Solutol and 10 mM PBS were sequentially added to prepare a solution or suspension of required concentration for administration. For the vehicle, DMSO, Solutol and 10 mM PBS were mixed in a volume ratio of 5:15:80. In each of the groups, the animals were administered through oral gavage (10 mL/kg) 5 h before LPS (or saline) stimulation at predetermined doses, and euthanized with CO2 at 1.5 h after the stimulation for cardiac blood collection. The whole blood was not anticoagulated, incubated in wet ice for 1.5 h, and centrifuged at 2000×g at 4° C. for 10 min to separate the serum. The serum was frozen at −80° C. for TNF-α assay. Quantification of the TNF-α was done with TNF-α ELISA kit according to the manufacturer's instruction.
# [3] = 1 mg/kg, intravenous injection, 1 mpk
# [4] = 2 mg/kg, oral administration, 2 mpk, 5% DMSO + 15% Solutol + 80% Saline
IC50 (human IRAK4) [nM],SMILES,other results
36,COc1cc2nn(CCN3CC(F)(F)C3)cc2cc1NC(=O)c1cccc(C(F)(F)F)n1 [MY-004-017],–
13,COc1cc2nn([C@H]3C[C@@H](C(C)(C)O)C3)cc2cc1NC(=O)c1cccc(C(F)(F)F)n1 [MY-004-040],–
5,COc1cc2nn([C@H]3C[C@H](CO)C3)cc2cc1NC(=O)c1cccc(C(F)(F)F)n1 [MY-004-082],"Cmax ([1]; 1 mg/kg, intravenous injection, 1 mpk, 5% DMSO + 15% Solutol + 80% Saline): 1320 ng/mL; AUC(0-t) [1, 3]: 790 ng·h/mL; AUC(0-inf) [1, 3]: 793 ng·h/mL; MRT [1, 3]: 31.2 min; clearance ([1]; 1 mg/kg, intravenous injection, 1 mpk, read-out: Clearance CL): 21.9 mL/min/kg; half-life [1, 3]: 30.6 min; Vd ([1]; 1 mg/kg, intravenous injection, 1 mpk, read-out: Volume of distribution at steady state VZ): 0.93 L/kg; AUC(0-t) [1, 4]: 416 ng·h/mL; AUC(0-inf) [1, 4]: 424 ng·h/mL; MRT [1, 4]: 161 min; bioavailability ([1]; 2 mg/kg, oral administration, 2 mpk, 5% DMSO + 15% Solutol + 80% Saline, read-out: Bioavailability F): 26.3%; half-life [1, 4]: 65.4 min; Cmax [1, 4]: 114 ng/mL; Tmax ([1]; 2 mg/kg, oral administration, 2 mpk, 5% DMSO + 15% Solutol + 80% Saline, read-out: Time to peak tmax): 30 min"
9.5,COc1cc2nn(C3CC(O)C3)cc2cc1NC(=O)c1cccc(C(F)(F)F)n1 (centres unmarked) [MY-004-084],–
12.3,COc1cc2nn(C3CC(CO)C3)cc2cc1NC(=O)c1cccc(C(F)(F)F)n1 (centres unmarked) [MY-004-090],–
13,COc1cc2nn([C@H]3C[C@H](C(C)(C)O)C3)cc2cc1NC(=O)c1cccc(C)n1 [MY-004-093],–
41,COc1cc2nn([C@H]3C[C@H](C(C)(C)O)C3)cc2cc1NC(=O)c1cnc2ccccc2n1 [MY-004-094],–
35,COc1cc2nn([C@H]3C[C@@H](C(=O)OC)C3)cc2cc1NC(=O)c1cccc(C(F)(F)F)n1 [MY-004-099],–
11,COc1cc2nn([C@H]3C[C@H](C(=O)OC)C3)cc2cc1NC(=O)c1cccc(C(F)(F)F)n1 [MY-004-100],–
48,CC(C)(O)c1cc2nn([C@H]3C[C@H](C(C)(C)O)C3)cc2cc1NC(=O)c1cccc(C#N)n1 [MY-004-110],–
16.7,CN(C)c1cc2nn([C@H]3C[C@H](C(C)(C)O)C3)cc2cc1NC(=O)c1cccc(F)n1 [MY-004-118],–
14,COc1cc2nn([C@H]3C[C@H](C(C)(C)O)C3)cc2cc1NC(=O)c1cccc(F)n1 [MY-004-119],–
4.3,COc1cc2nn([C@H]3CC[C@@H](O)CC3)cc2cc1NC(=O)c1cccc(C(F)(F)F)n1 [MY-004-127-2],–
6.6,COc1cc2nn(C3CC(C)(O)C3)cc2cc1NC(=O)c1cccc(C(F)(F)F)n1 (centres unmarked) [MY-004-128],–
6.4,CC(C)(O)[C@H]1C[C@H](n2cc3cc(NC(=O)c4cccc(C(F)(F)F)n4)c(-c4ccccn4)cc3n2)C1 [MY-004-146],–
1.6,CN(C)c1cc2nn([C@H]3CC[C@@H](O)CC3)cc2cc1NC(=O)c1cccc(C(F)(F)F)n1 [MY-004-154],Inhibition rate of TNF-α [2]: 87.82%
2.7,CN(C)c1cc2nn([C@H]3CC[C@](C)(O)CC3)cc2cc1NC(=O)c1cccc(C(F)(F)F)n1 [MY-004-167],–
6.3,COc1cc2nn(C3CC(OC)C3)cc2cc1NC(=O)c1cccc(C(F)(F)F)n1 (centres unmarked) [MY-004-168],–
2.2,O=C(Nc1cc2cn([C@H]3CC[C@H](O)CC3)nc2cc1OCC1CC1)c1cccc(C(F)(F)F)n1 [MY-004-217],–
5.1,O=C(Nc1cc2cn([C@H]3CC[C@@H](O)CC3)nc2cc1OCC1CC1)c1cccc(C(F)(F)F)n1 [MY-004-218],–
1.7,C[C@]1(O)CC[C@@H](n2cc3cc(NC(=O)c4cccc(C(F)(F)F)n4)c(-n4cccn4)cc3n2)CC1 [MY-004-227],–
2,C[C@]1(O)CC[C@H](n2cc3cc(NC(=O)c4cccc(C(F)(F)F)n4)c(-n4cccn4)cc3n2)CC1 [MY-004-228],Inhibition rate of TNF-α [2]: 88.46%
8.4,CC(C)(O)[C@H]1C[C@H](n2cc3cc(NC(=O)c4cccc(C(F)(F)F)n4)c(-n4cc(C#N)cn4)cc3n2)C1 [MY-004-229],–
2.4,CC(C)(O)c1cc2nn([C@H]3CC[C@H](O)CC3)cc2cc1NC(=O)c1cccc(C(F)(F)F)n1 [MY-004-322],–
6.9,CC(C)(O)c1cc2nn([C@H]3CC[C@@H](O)CC3)cc2cc1NC(=O)c1cccc(C(F)(F)F)n1 [MY-004-326],–
